# From patent US20250145635A1, “COMPOUND CONTAINING BIS(AZANYLYLIDENE) SULFONYL STRUCTURE AND USE THEREOF IN MEDICINE” (SCINNOHUB PHARMACEUTICAL CO., LTD., priority 2021, published 2025)
# Molecular target: recombinant human PKR enzyme (Homo sapiens (Human), UniProt P30613)
# Experiment: Pyruvate kinase (PKR) activity experiment
# Format: biochemical
# Conditions: activation of recombinant human PKR enzyme
# Method: • 1). A recombinant human PKR enzyme solution was formulated at a concentration of 60 ng/well (a 20 μL reaction system), and 5 μL of the solution was added into each well of a black transparent bottom 384-well plate. • 2). Compound solutions were formulated at different concentrations, with the final concentrations of 1000/300/100 nM (containing 1% DMSO). Each 5 μL of the compound solution was added into the plate in item 3.1 and mixed well. The plate was incubated at room temperature for 10 min. • 3). A reaction system was formulated according to the instructions of a kit (as shown in the table below), and 10 μL of the reaction system was added into each well of the 384-well plate, and mixed uniformly with the solution in item 3.2.
# • 4). The 384-well plate was placed on a microplate reader to detect the fluorescence value at 540/590 nm, where the value was read every 2 minutes and the detection was conducted continuously for 1 hour. • 5). The Slope value within the detection time was calculated, and the 0.1% DMSO well was used as a control well to calculate a compound activation rate.
# [formula] • 6). Fitting dose-effect curve
# With the log value of the compound concentration as the X axis and the percentage activation rate as the Y axis, a dose-effect curve was fitted with the log(agonist) vs. response-variable slope of the analysis software GraphPad Prism 5, and the AC50 value of the activity of each compound against PKR was obtained.
# recombinant human PKR enzyme, sequence (P30613 whole entry): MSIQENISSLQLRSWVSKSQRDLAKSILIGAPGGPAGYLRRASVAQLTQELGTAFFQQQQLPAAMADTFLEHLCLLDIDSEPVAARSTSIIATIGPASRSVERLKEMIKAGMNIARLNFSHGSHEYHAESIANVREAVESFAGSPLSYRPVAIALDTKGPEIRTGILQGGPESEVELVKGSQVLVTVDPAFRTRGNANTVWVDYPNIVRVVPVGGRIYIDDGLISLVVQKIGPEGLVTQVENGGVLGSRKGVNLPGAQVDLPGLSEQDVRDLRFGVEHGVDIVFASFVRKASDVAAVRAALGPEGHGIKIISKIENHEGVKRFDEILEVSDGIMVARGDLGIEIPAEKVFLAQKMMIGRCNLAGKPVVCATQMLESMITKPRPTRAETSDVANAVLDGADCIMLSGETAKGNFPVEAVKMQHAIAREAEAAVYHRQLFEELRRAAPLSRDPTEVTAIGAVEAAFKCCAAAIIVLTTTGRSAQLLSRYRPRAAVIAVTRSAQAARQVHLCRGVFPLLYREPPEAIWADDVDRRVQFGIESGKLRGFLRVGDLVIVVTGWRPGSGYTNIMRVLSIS
smiles,measurement,value
"O=C([C@H](CO)c1ccccc1)N1CC(=C2CN(S(=O)(=O)c3ccc(OC(F)F)cc3)C2)C1 [Compound 7, (S)-1-(1′-((4-(difluoromethoxy)phenyl)sulfonyl)-1′,4′-dihydro-2H,2′H-[3,3′-diazetidinylidene]-1(4H)-yl)-3-hydroxy-2-phenylpropan-1-one]",AC50,0.101 to 0.3 µM
"O=C([C@H](CO)c1ccccc1)N1CC(=C2CN(S(=O)(=O)c3ccc(OC(F)(F)F)cc3)C2)C1 [Compound 9, (S)-3-hydroxy-2-phenyl-1-(1′-((4-(trifluoromethoxy)phenyl)sulfonyl)-1′,4′-dihydro-2H,2′H-[3,3′-diazetidinylidene]-1(4H)-yl)propan-1-one]",AC50,0.101 to 0.3 µM
O=C([C@H](CO)c1ccccc1)N1CC(=C2CN(S(=O)(=O)c3ccc(F)cc3)C2)C1 [Compound 10],AC50,0.101 to 0.3 µM
O=C([C@H](CO)c1ccccc1)N1CC(=C2CN(S(=O)(=O)c3ccc(OC(F)F)c(F)c3)C2)C1 [Compound 11],AC50,0.101 to 0.3 µM
"O=C([C@H](CO)c1ccccc1)N1CC(=C2CN(S(=O)(=O)c3ccc4c(c3)NCCO4)C2)C1 [Compound 12, (S)-1-(1′-((3,4-dihydro-2H-benzo[b][1,4]oxazin-6-yl)sulfonyl)-1′,4′-dihydro-2H,2′H-[3,3′-diazetidinylidene]-1(4H)-yl)-3-hydroxy-2-phenylpropan-1-one]",AC50,< 0.1 µM
"O=C(C(O)c1ccc2c(c1)NCCO2)N1CC(=C2CN(S(=O)(=O)c3ccc(OC(F)F)cc3)C2)C1 (stereo not shown) [Compound 13, 1-(1′-((4-(difluoromethoxy)phenyl)sulfonyl)-1′,4′-dihydro-2H,2′H-[3,3′-diazetidinylidene]-1(4H)-yl)-2-(3,4-dihydro-2H-benzo[b][1,4]oxazin-6-yl)-2-hydroxyethan-1-one]",AC50,< 0.1 µM
"CNCC(C(=O)N1CC(=C2CN(S(=O)(=O)c3ccc4c(c3)OCCO4)C2)C1)c1cccc(OC)c1 (stereo not shown) [Compound 15, 1-(1′-((2,3-dihydrobenzo[b][1,4]dioxin-6-yl)sulfonyl)-1′,4′-dihydro-2H,2′H-[3,3′-diazetidinylidene]-1(4H)-yl)-2-(3-methoxyphenyl)-3-(methylamino)propan-1-one]",AC50,0.3 to 1 µM
"O=C(C(CO)c1ccc(F)cc1)N1CC(=C2CN(S(=O)(=O)c3ccc(OC(F)F)cc3)C2)C1 (stereo not shown) [Compound 16, 1-(1′-((4-(difluoromethoxy)phenyl)sulfonyl)-1′,4′-dihydro-2H,2′H-[3,3′-diazetidinylidene]-1(4H)-yl)-2-(4-fluorophenyl)-3-hydroxypropan-1-one]",AC50,0.101 to 0.3 µM
"CC(C)(O)C(C(=O)N1CC(=C2CN(S(=O)(=O)c3ccc(OC(F)F)cc3)C2)C1)c1ccccc1 (stereo not shown) [Compound 17, 1-(1′-((4-(difluoromethoxy)phenyl)sulfonyl)-1′,4′-dihydro-2H,2′H-[3,3′-diazetidinylidene]-1(4H)-yl)-3-hydroxy-3-methyl-2-phenylbutan-1-one]",AC50,0.3 to 1 µM
"O=C([C@H](CO)c1ccccc1)N1CC(=C2CN(S(=O)(=O)c3cc(F)c4c(c3)OCCO4)C2)C1 [Compound 20, (S)-1-(1′-((8-fluoro-2,3-dihydrobenzo[b][1,4]dioxin-6-yl)sulfonyl)-1′,4′-dihydro-2H,2′H-[3,3′-diazetidinylidene]-1(4H)-yl)-3-hydroxy-2-phenylpropan-1-one]",AC50,0.101 to 0.3 µM
"NC(C(=O)N1CC(=C2CN(S(=O)(=O)c3ccc(OC(F)F)cc3)C2)C1)c1ccc(F)cc1 (stereo not shown) [Compound 22, 2-amino-1-(1′-((4-(difluoromethoxy)phenyl)sulfonyl)-1′,4′-dihydro-2H,2′H-[3,3′-diazetidinylidene]-1(4H)-yl)-2-(4-fluorophenyl)ethan-1-one]",AC50,0.3 to 1 µM
"NC(C(=O)N1CC(=C2CN(S(=O)(=O)c3ccc(OC(F)F)cc3)C2)C1)c1cccc(C(F)(F)F)c1 (stereo not shown) [Compound 23, 2-amino-1-(1′-((4-(difluoromethoxy)phenyl)sulfonyl)-1′,4′-dihydro-2H,2′H-[3,3′-diazetidinylidene]-1(4H)-yl)-2-(3-(trifluoromethyl)phenyl)ethan-1-one]",AC50,0.3 to 1 µM
"Cc1nc2c(C(O)C(=O)N3CC(=C4CN(S(=O)(=O)c5ccc(OC(F)F)cc5)C4)C3)cccc2s1 (stereo not shown) [Compound 24, 1-(1′-((4-(difluoromethoxy)phenyl)sulfonyl)-1′,4′-dihydro-2H,2′H-[3,3′-diazetidinylidene]-1(4H)-yl)-2-hydroxy-2-(2-methylbenzo[d]thiazol-4-yl)ethan-1-one]",AC50,0.3 to 1 µM
"O=C([C@H](CO)c1ccc(F)cc1)N1CC(=C2CN(S(=O)(=O)c3ccc4ncsc4c3)C2)C1 [Compound 25, (S)-1-(1′-(benzo[d]thiazol-6-ylsulfonyl)-1′,4′-dihydro-2H,2′H-[3,3′-diazetidinylidene]-1(4H)-yl)-2-(4-fluorophenyl)-3-hydroxypropan-1-one]",AC50,< 0.1 µM
"O=C([C@H](CO)c1ccccc1)N1CC(=C2CN(S(=O)(=O)c3ccc(-c4ncco4)c(F)c3)C2)C1 [Compound 27, (S)-1-(1′-((3-fluoro-4-(oxazol-2-yl)phenyl)sulfonyl)-1′,4′-dihydro-2H,2′H-[3,3′-diazetidinylidene]-1(4H)-yl)-3-hydroxy-2-phenylpropan-1-one]",AC50,0.3 to 1 µM
CNCC(C(=O)N1CC(=C2CN(S(=O)(=O)c3ccc4c(c3)OCCO4)C2)C1)c1ccc(F)c(Cl)c1OC (stereo not shown) [Compound 28],AC50,0.3 to 1 µM
"O=C([C@H](CO)c1ccc(F)cc1)N1CC(=C2CN(S(=O)(=O)c3ccc4c(c3)OCCO4)C2)C1 [Compound 30, (S)-1-(1′-((2,3-dihydrobenzo[b][1,4]dioxin-6-yl)sulfonyl)-1′,4′-dihydro-2H,2′H—[3,3′-diazetidinylidene]-1(4H)-yl)-2-(4-fluorophenyl)-3-hydroxypropan-1-one]",AC50,< 0.1 µM
"O=C([C@@H](CO)c1ccc(F)cc1)N1CC(=C2CN(S(=O)(=O)c3ccc4c(c3)OCCO4)C2)C1 [Compound 31, (R)-1-(1′-((2,3-dihydrobenzo[b][1,4]dioxin-6-yl)sulfonyl)-1′,4′-dihydro-2H,2′H-[3,3′-diazetidinylidene]-1(4H)-yl)-2-(4-fluorophenyl)-3-hydroxypropan-1-one]",AC50,0.3 to 1 µM
"O=C(C(CO)c1ccc2ccccc2c1)N1CC(=C2CN(S(=O)(=O)c3ccc4ncsc4c3)C2)C1 (stereo not shown) [Compound 32, 1-(1′-(benzo[d]thiazol-6-ylsulfonyl)-1′,4′-dihydro-2H,2′H-[3,3′-diazetidinylidene]-1(4H)-yl)-3-hydroxy-2-(naphthalene-2-yl)propan-1-one]",AC50,< 0.1 µM
CN1CCN(c2cccc(C(CO)C(=O)N3CC(=C4CN(S(=O)(=O)c5ccc6ncsc6c5)C4)C3)c2)CC1 (stereo not shown) [Compound 33],AC50,0.3 to 1 µM
"Cn1cc(-c2ccc(C(CO)C(=O)N3CC(=C4CN(S(=O)(=O)c5ccc6ncsc6c5)C4)C3)cc2)cn1 (stereo not shown) [Compound 34, 1-(1′-(benzo[d]thiazol-6-ylsulfonyl)-1′,4′-dihydro-2H,2′H-[3,3′-diazetidinylidene]-1(4H)-yl)-3-hydroxy-2-(4-(1-methyl-1H-pyrazol-4-yl)phenyl)propan-1-one]",AC50,0.3 to 1 µM
"Cc1nc2ccc(S(=O)(=O)N3CC(=C4CN(C(=O)[C@H](CO)c5ccccc5)C4)C3)cc2s1 [Compound 35, (S)-3-hydroxy-1-(1′-((2-methylbenzo[d]thiazol-6-yl)sulfonyl)-1′,4′-dihydro-2H,2′H-[3,3′-diazetidinylidene]-1(4H)-yl)-2-phenylpropan-1-one]",AC50,< 0.1 µM
"O=C(C(CO)c1ccc(F)cc1)N1CC(=C2CN(S(=O)(=O)c3ccc4c(c3)OC(F)(F)O4)C2)C1 (stereo not shown) [Compound 36, 1-(1′-((2,2-difluorobenzo[d][1,3]dioxolan-5-yl)sulfonyl)-1′,4′-dihydro-2H,2′H-[3,3′-diazetidinylidene]-1(4H)-yl)-2-(4-fluorophenyl)-3-hydroxypropan-1-one]",AC50,0.3 to 1 µM
"O=C(N1CC(=C2CN(S(=O)(=O)c3ccc(OC(F)F)cc3)C2)C1)C1(c2ccccc2)CCOC1 (stereo not shown) [Compound 37, (1′-((4-(difluoromethoxy)phenyl)sulfonyl)-1′,4′-dihydro-2H,2′H-[3,3′-diazetidinylidene]-1(4H)-yl)(3-phenyltetrahydrofuran-3-yl)methanone]",AC50,< 0.1 µM
"CNCC(C(=O)N1CC(=C2CN(S(=O)(=O)c3ccc4ncsc4c3)C2)C1)c1ccc(F)c(Cl)c1 (stereo not shown) [Compound 38, 1-(1′-(benzo[d]thiazol-6-ylsulfonyl)-1′,4′-dihydro-2H,2′H-[3,3′-diazetidinylidene]-1(4H)-yl)-2-(3-chloro-4-fluorophenyl)-3-(methylamino)propan-1-one]",AC50,0.3 to 1 µM
"CN1CCOc2ccc(S(=O)(=O)N3CC(=C4CN(C(=O)[C@H](CO)c5ccccc5)C4)C3)cc21 [Compound 39, (S)-3-hydroxy-1-(1′-((4-methyl-3,4-dihydro-2H-benzo[b][1,4]oxazin-6-yl)sulfonyl)-1′,4′-dihydro-2H,2′H-[3,3′-diazetidinylidene]-1(4H)-yl)-2-phenylpropan-1-one]",AC50,< 0.1 µM
"O=C1COc2ccc(S(=O)(=O)N3CC(=C4CN(C(=O)[C@H](CO)c5ccccc5)C4)C3)cc2N1 [Compound 40, (S)-6-((1′-(3-hydroxy-2-phenylpropionyl)-1′,4′-dihydro-2H,2′H-[3,3′-diazetidinylidene]-1(4H)-yl)sulfonyl)-2H-benzo[b][1,4]oxazine-3(4H)-one]",AC50,0.101 to 0.3 µM
"CN1C(=O)COc2ccc(S(=O)(=O)N3CC(=C4CN(C(=O)[C@H](CO)c5ccccc5)C4)C3)cc21 [Compound 41, (S)-6-((1′-(3-hydroxy-2-phenylpropionyl)-1′,4′-dihydro-2H,2′H-[3,3′-diazetidinylidene]-1(4H)-yl)sulfonyl)-4-methyl-2H-benzo[b][1,4]oxazine-3(4H)-one]",AC50,0.3 to 1 µM
